Source: BigSolDB 2.1

[1] = in tetrachloromethane, 268.15 K
[2] = in tetrachloromethane, 273.15 K
[3] = in tetrachloromethane, 278.15 K
[4] = in tetrachloromethane, 288.15 K
[5] = in tetrachloromethane, 298.15 K
[6] = in tetrachloromethane, 308.15 K
[7] = in tetrachloromethane, 318.15 K

Question: What does the source list for `N#Cc1cccnc1`?
Answer: solubility (mole fraction) (in acetone, 268.15 K): 0.247; solubility (mole fraction) (in acetone, 273.15 K): 0.29; solubility (mole fraction) (in acetone, 278.15 K): 0.329; solubility (mole fraction) (in acetone, 288.15 K): 0.438; solubility (mole fraction) (in acetone, 298.15 K): 0.541; solubility (mole fraction) (in acetone, 308.15 K): 0.664; solubility (mole fraction) (in acetone, 318.15 K): 0.833; solubility (mole fraction) (in ethanol, 268.15 K): 0.0429; solubility (mole fraction) (in ethanol, 273.15 K): 0.0593; solubility (mole fraction) (in ethanol, 278.15 K): 0.0903; solubility (mole fraction) (in ethanol, 288.15 K): 0.201; solubility (mole fraction) (in ethanol, 298.15 K): 0.339; solubility (mole fraction) (in ethanol, 308.15 K): 0.491; solubility (mole fraction) (in ethanol, 318.15 K): 0.627; solubility (mole fraction) (in ethyl acetate, 268.15 K): 0.209; solubility (mole fraction) (in ethyl acetate, 273.15 K): 0.247; solubility (mole fraction) (in ethyl acetate, 278.15 K): 0.282; solubility (mole fraction) (in ethyl acetate, 288.15 K): 0.375; solubility (mole fraction) (in ethyl acetate, 298.15 K): 0.478; solubility (mole fraction) (in ethyl acetate, 308.15 K): 0.63; solubility (mole fraction) (in ethyl acetate, 318.15 K): 0.803; solubility (mole fraction) (in isobutanol, 268.15 K): 0.028; solubility (mole fraction) (in isobutanol, 273.15 K): 0.0396; solubility (mole fraction) (in isobutanol, 278.15 K): 0.0702; solubility (mole fraction) (in isobutanol, 288.15 K): 0.17; solubility (mole fraction) (in isobutanol, 298.15 K): 0.3; solubility (mole fraction) (in isobutanol, 308.15 K): 0.435; solubility (mole fraction) (in isobutanol, 318.15 K): 0.6; solubility (mole fraction) (in methanol, 268.15 K): 0.0877; solubility (mole fraction) (in methanol, 273.15 K): 0.111; solubility (mole fraction) (in methanol, 278.15 K): 0.153; solubility (mole fraction) (in methanol, 288.15 K): 0.267; solubility (mole fraction) (in methanol, 298.15 K): 0.404; solubility (mole fraction) (in methanol, 308.15 K): 0.541; solubility (mole fraction) (in methanol, 318.15 K): 0.726; solubility (mole fraction) (in n-butanol, 268.15 K): 0.025; solubility (mole fraction) (in n-butanol, 273.15 K): 0.0393; solubility (mole fraction) (in n-butanol, 278.15 K): 0.0645; solubility (mole fraction) (in n-butanol, 288.15 K): 0.164; solubility (mole fraction) (in n-butanol, 298.15 K): 0.275; solubility (mole fraction) (in n-butanol, 308.15 K): 0.427; solubility (mole fraction) (in n-butanol, 318.15 K): 0.577; solubility (mole fraction) (in n-propanol, 268.15 K): 0.0434; solubility (mole fraction) (in n-propanol, 273.15 K): 0.0658; solubility (mole fraction) (in n-propanol, 278.15 K): 0.0976; solubility (mole fraction) (in n-propanol, 288.15 K): 0.214; solubility (mole fraction) (in n-propanol, 298.15 K): 0.348; solubility (mole fraction) (in n-propanol, 308.15 K): 0.5; solubility (mole fraction) (in n-propanol, 318.15 K): 0.643; solubility (mole fraction) [1]: 0.0098; solubility (mole fraction) [2]: 0.0152; solubility (mole fraction) [3]: 0.024; solubility (mole fraction) [4]: 0.095; solubility (mole fraction) [5]: 0.239; solubility (mole fraction) [6]: 0.393; solubility (mole fraction) [7]: 0.568

Question: For `N#Cc1ccncc1`, which solubility (mole fraction) (in acetone, 268.15 K) is on record?
Answer: 0.117

Question: And the solubility (mole fraction) (in acetone, 273.15 K)?
Answer: 0.134

Question: And the solubility (mole fraction) (in acetone, 278.15 K)?
Answer: 0.155

Question: And the solubility (mole fraction) (in acetone, 288.15 K)?
Answer: 0.213

Question: What about the solubility (mole fraction) (in acetone, 298.15 K) of the same molecule?
Answer: 0.275

Question: What about the solubility (mole fraction) (in acetone, 308.15 K) of the same molecule?
Answer: 0.356

Question: And the solubility (mole fraction) (in acetone, 318.15 K)?
Answer: 0.46

Question: What about the solubility (mole fraction) (in ethanol, 268.15 K) of the same molecule?
Answer: 0.0065

Question: What about the solubility (mole fraction) (in ethanol, 273.15 K) of the same molecule?
Answer: 0.016

Question: And the solubility (mole fraction) (in ethanol, 278.15 K)?
Answer: 0.0179

Question: What about the solubility (mole fraction) (in ethanol, 288.15 K) of the same molecule?
Answer: 0.0367

Question: What about the solubility (mole fraction) (in ethanol, 298.15 K) of the same molecule?
Answer: 0.0706

Question: What about the solubility (mole fraction) (in ethanol, 308.15 K) of the same molecule?
Answer: 0.136

Question: What about the solubility (mole fraction) (in ethanol, 318.15 K) of the same molecule?
Answer: 0.273

Question: What about the solubility (mole fraction) (in ethyl acetate, 268.15 K) of the same molecule?
Answer: 0.106

Question: What about the solubility (mole fraction) (in ethyl acetate, 273.15 K) of the same molecule?
Answer: 0.121

Question: And the solubility (mole fraction) (in ethyl acetate, 278.15 K)?
Answer: 0.142

Question: And the solubility (mole fraction) (in ethyl acetate, 288.15 K)?
Answer: 0.203

Question: What about the solubility (mole fraction) (in ethyl acetate, 298.15 K) of the same molecule?
Answer: 0.261

Question: What about the solubility (mole fraction) (in ethyl acetate, 308.15 K) of the same molecule?
Answer: 0.343

Question: And the solubility (mole fraction) (in ethyl acetate, 318.15 K)?
Answer: 0.437

Question: What about the solubility (mole fraction) (in isobutanol, 268.15 K) of the same molecule?
Answer: 0.0133

Question: And the solubility (mole fraction) (in isobutanol, 273.15 K)?
Answer: 0.0176

Question: What about the solubility (mole fraction) (in isobutanol, 278.15 K) of the same molecule?
Answer: 0.0229

Question: What about the solubility (mole fraction) (in isobutanol, 288.15 K) of the same molecule?
Answer: 0.0469

Question: What about the solubility (mole fraction) (in isobutanol, 298.15 K) of the same molecule?
Answer: 0.108

Question: And the solubility (mole fraction) (in isobutanol, 308.15 K)?
Answer: 0.172

Question: What about the solubility (mole fraction) (in isobutanol, 318.15 K) of the same molecule?
Answer: 0.304

Question: What about the solubility (mole fraction) (in methanol, 268.15 K) of the same molecule?
Answer: 0.0245

Question: And the solubility (mole fraction) (in methanol, 273.15 K)?
Answer: 0.0302

Question: What about the solubility (mole fraction) (in methanol, 278.15 K) of the same molecule?
Answer: 0.0361

Question: What about the solubility (mole fraction) (in methanol, 288.15 K) of the same molecule?
Answer: 0.062

Question: What about the solubility (mole fraction) (in methanol, 298.15 K) of the same molecule?
Answer: 0.0954

Question: What about the solubility (mole fraction) (in methanol, 308.15 K) of the same molecule?
Answer: 0.173

Question: What about the solubility (mole fraction) (in methanol, 318.15 K) of the same molecule?
Answer: 0.304

Question: And the solubility (mole fraction) (in n-butanol, 268.15 K)?
Answer: 0.0141

Question: What about the solubility (mole fraction) (in n-butanol, 273.15 K) of the same molecule?
Answer: 0.0149

Question: And the solubility (mole fraction) (in n-butanol, 278.15 K)?
Answer: 0.0216

Question: And the solubility (mole fraction) (in n-butanol, 288.15 K)?
Answer: 0.0471

Question: And the solubility (mole fraction) (in n-butanol, 298.15 K)?
Answer: 0.0898

Question: And the solubility (mole fraction) (in n-butanol, 308.15 K)?
Answer: 0.151

Question: What about the solubility (mole fraction) (in n-butanol, 318.15 K) of the same molecule?
Answer: 0.284

Question: What about the solubility (mole fraction) (in n-propanol, 268.15 K) of the same molecule?
Answer: 0.0246

Question: What about the solubility (mole fraction) (in n-propanol, 273.15 K) of the same molecule?
Answer: 0.0271

Question: And the solubility (mole fraction) (in n-propanol, 278.15 K)?
Answer: 0.0396

Question: And the solubility (mole fraction) (in n-propanol, 288.15 K)?
Answer: 0.07

Question: And the solubility (mole fraction) (in n-propanol, 298.15 K)?
Answer: 0.129

Question: And the solubility (mole fraction) (in n-propanol, 308.15 K)?
Answer: 0.19

Question: And the solubility (mole fraction) (in n-propanol, 318.15 K)?
Answer: 0.298

Question: And the solubility (mole fraction) [1]?
Answer: 0.0129

Question: What about the solubility (mole fraction) [2] of the same molecule?
Answer: 0.0194

Question: What about the solubility (mole fraction) [3] of the same molecule?
Answer: 0.0292

Question: What about the solubility (mole fraction) [4] of the same molecule?
Answer: 0.0396

Question: What about the solubility (mole fraction) [5] of the same molecule?
Answer: 0.0839

Question: And the solubility (mole fraction) [6]?
Answer: 0.151

Question: What about the solubility (mole fraction) [7] of the same molecule?
Answer: 0.287
